# From PubChem BioAssay AID1963837 (Molecular Pharmacology Branch, DTP, NCI, 2024)
# System: 843126-344-R-J1-PDC complex spheroid viability
# Experiment: Anticancer human tumor 843126-344-R-J1-PDC patient-derived melanoma cell line growth inhibition [POLQ]
# Conditions: for IC50: curve of first compound; for viability, T/C: stronger effect = lower value
# Summary of the method: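 Patient-derived tumour cells were co-cultured with HUVEC and mesenchymal stem cells as multicellular spheroids at 37 °C. They were treated with POLQ inhibitors (novobiocin, ART-558, RP6685) alone or combined with other agents. Top concentrations were at or near clinical Cmax (otherwise 10 microM; SN-38 at 1 microM), decreasing in half-log steps.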
# 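Wherever viability, T/C is given: spheroids exposed to drugs for seven days before readout.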
smiles,measurement,setting,value
CC(=O)O[C@H]1C(=O)[C@@]2(C)[C@H]([C@H](OC(=O)c3ccccc3)[C@]3(O)C[C@H](OC(=O)[C@H](O)[C@@H](NC(=O)c4ccccc4)c4ccccc4)C(C)=C1C3(C)C)[C@]1(OC(C)=O)CO[C@@H]1C[C@@H]2O + Nc1ccc(C#CCN(C(=O)Cc2ncc(C(F)(F)F)cc2C(F)(F)F)c2ccc(F)cc2)nn1,IC50,second compound 0.0316 µM,> 3 µM
same,IC50,second compound 0.1 µM,> 3 µM
same,IC50,second compound 0.316 µM,> 3 µM
same,IC50,second compound 1 µM,> 3 µM
same,IC50,second compound 3.16 µM,> 3 µM
same,IC50,second compound 10 µM,> 3 µM
same,"viability, T/C","second compound 0.0316 µM, first compound 0.00949 µM",65.6%
same,"viability, T/C","second compound 0.0316 µM, first compound 0.03 µM",58.7%
same,"viability, T/C","second compound 0.0316 µM, first compound 0.0949 µM",65%
same,"viability, T/C","second compound 0.0316 µM, first compound 0.3 µM",65.8%
same,"viability, T/C","second compound 0.0316 µM, first compound 0.949 µM",68.5%
same,"viability, T/C","second compound 0.0316 µM, first compound 3 µM",69.6%
same,"viability, T/C","second compound 0.1 µM, first compound 0.00949 µM",65.6%
same,"viability, T/C","second compound 0.1 µM, first compound 0.03 µM",53.5%
same,"viability, T/C","second compound 0.1 µM, first compound 0.0949 µM",56.7%
same,"viability, T/C","second compound 0.1 µM, first compound 0.3 µM",61.5%
same,"viability, T/C","second compound 0.1 µM, first compound 0.949 µM",78.6%
same,"viability, T/C","second compound 0.1 µM, first compound 3 µM",61.2%
same,"viability, T/C","second compound 0.316 µM, first compound 0.00949 µM",68.1%
same,"viability, T/C","second compound 0.316 µM, first compound 0.03 µM",53.4%
same,"viability, T/C","second compound 0.316 µM, first compound 0.0949 µM",70.7%
same,"viability, T/C","second compound 0.316 µM, first compound 0.3 µM",61.6%
same,"viability, T/C","second compound 0.316 µM, first compound 0.949 µM",64.8%
same,"viability, T/C","second compound 0.316 µM, first compound 3 µM",73.5%
same,"viability, T/C","second compound 1 µM, first compound 0.00949 µM",67.2%
same,"viability, T/C","second compound 1 µM, first compound 0.03 µM",57.1%
same,"viability, T/C","second compound 1 µM, first compound 0.0949 µM",62.2%
same,"viability, T/C","second compound 1 µM, first compound 0.3 µM",55.6%
same,"viability, T/C","second compound 1 µM, first compound 0.949 µM",62.8%
same,"viability, T/C","second compound 1 µM, first compound 3 µM",62.7%
same,"viability, T/C","second compound 3.16 µM, first compound 0.00949 µM",69.3%
same,"viability, T/C","second compound 3.16 µM, first compound 0.03 µM",62.1%
same,"viability, T/C","second compound 3.16 µM, first compound 0.0949 µM",54.9%
same,"viability, T/C","second compound 3.16 µM, first compound 0.3 µM",59.8%
same,"viability, T/C","second compound 3.16 µM, first compound 0.949 µM",63.7%
same,"viability, T/C","second compound 3.16 µM, first compound 3 µM",61.5%
same,"viability, T/C","second compound 10 µM, first compound 0.00949 µM",65.5%
same,"viability, T/C","second compound 10 µM, first compound 0.03 µM",57.6%
same,"viability, T/C","second compound 10 µM, first compound 0.0949 µM",61.5%
same,"viability, T/C","second compound 10 µM, first compound 0.3 µM",61.3%
same,"viability, T/C","second compound 10 µM, first compound 0.949 µM",60.2%
same,"viability, T/C","second compound 10 µM, first compound 3 µM",61.8%
CC[C@@]1(O)C(=O)OCc2c1cc1n(c2=O)Cc2cc3c(CN(C)C)c(O)ccc3nc2-1 + Nc1ccc(C#CCN(C(=O)Cc2ncc(C(F)(F)F)cc2C(F)(F)F)c2ccc(F)cc2)nn1,IC50,second compound 0.0316 µM,> 0.1 µM
same,IC50,second compound 0.1 µM,> 0.1 µM
same,IC50,second compound 0.316 µM,> 0.1 µM
same,IC50,second compound 1 µM,> 0.1 µM
same,IC50,second compound 3.16 µM,> 0.1 µM
same,IC50,second compound 10 µM,> 0.1 µM
same,"viability, T/C","second compound 0.0316 µM, first compound 0.000316 µM",85%
same,"viability, T/C","second compound 0.0316 µM, first compound 0.001 µM",94%
same,"viability, T/C","second compound 0.0316 µM, first compound 0.00316 µM",82.8%
same,"viability, T/C","second compound 0.0316 µM, first compound 0.01 µM",100%
same,"viability, T/C","second compound 0.0316 µM, first compound 0.0316 µM",71.1%
same,"viability, T/C","second compound 0.0316 µM, first compound 0.1 µM",50.2%
same,"viability, T/C","second compound 0.1 µM, first compound 0.000316 µM",103%
same,"viability, T/C","second compound 0.1 µM, first compound 0.001 µM",85.8%
same,"viability, T/C","second compound 0.1 µM, first compound 0.00316 µM",91%
same,"viability, T/C","second compound 0.1 µM, first compound 0.01 µM",87.7%
same,"viability, T/C","second compound 0.1 µM, first compound 0.0316 µM",67.2%
same,"viability, T/C","second compound 0.1 µM, first compound 0.1 µM",55.8%
same,"viability, T/C","second compound 0.316 µM, first compound 0.000316 µM",96.4%
same,"viability, T/C","second compound 0.316 µM, first compound 0.001 µM",81.4%
same,"viability, T/C","second compound 0.316 µM, first compound 0.00316 µM",90.5%
same,"viability, T/C","second compound 0.316 µM, first compound 0.01 µM",91.7%
same,"viability, T/C","second compound 0.316 µM, first compound 0.0316 µM",72%
same,"viability, T/C","second compound 0.316 µM, first compound 0.1 µM",61.1%
same,"viability, T/C","second compound 1 µM, first compound 0.000316 µM",85.1%
same,"viability, T/C","second compound 1 µM, first compound 0.001 µM",93.3%
same,"viability, T/C","second compound 1 µM, first compound 0.00316 µM",102%
same,"viability, T/C","second compound 1 µM, first compound 0.01 µM",93.9%
same,"viability, T/C","second compound 1 µM, first compound 0.0316 µM",63.8%
same,"viability, T/C","second compound 1 µM, first compound 0.1 µM",49.2%
same,"viability, T/C","second compound 3.16 µM, first compound 0.000316 µM",93.6%
same,"viability, T/C","second compound 3.16 µM, first compound 0.001 µM",98.2%
same,"viability, T/C","second compound 3.16 µM, first compound 0.00316 µM",95.3%
same,"viability, T/C","second compound 3.16 µM, first compound 0.01 µM",106%
same,"viability, T/C","second compound 3.16 µM, first compound 0.0316 µM",64.9%
same,"viability, T/C","second compound 3.16 µM, first compound 0.1 µM",54.7%
same,"viability, T/C","second compound 10 µM, first compound 0.000316 µM",85.9%
same,"viability, T/C","second compound 10 µM, first compound 0.001 µM",87.3%
same,"viability, T/C","second compound 10 µM, first compound 0.00316 µM",87.8%
same,"viability, T/C","second compound 10 µM, first compound 0.01 µM",92.9%
same,"viability, T/C","second compound 10 µM, first compound 0.0316 µM",69.2%
same,"viability, T/C","second compound 10 µM, first compound 0.1 µM",50%
